# Source: ChEMBL document CHEMBL1140498, “Synthesis of novel anilinoquinolines as c-fms inhibitors” (Bioorg Med Chem Lett, 2007)
# Experiments:
# [1] = target: Macrophage colony-stimulating factor 1 receptor (Homo sapiens, UniProt P07333)
# [2] = tested on: NSO; experiment: Growth inhibition of MCSF-independent mouse NSO cells
# [3] = Growth inhibition of MCSF expressing mouse M-NSF60 cells
# [4] = Plasma clearance in rat at 3 mg/kg, iv; format: ADME, organism-based; parameters: dose 3 mg/kg, route intravenous
# [5] = Plasma clearance in rat; format: ADME, organism-based
# [6] = tested on: Rattus norvegicus; experiment: Antiinflammatory activity against carrageenan-induced paw edema in rat assessed as paw size at 40 mg/kg, iv relative to control; details: read-out: Inhibition
# Sequence of Macrophage colony-stimulating factor 1 receptor (P07333 whole entry): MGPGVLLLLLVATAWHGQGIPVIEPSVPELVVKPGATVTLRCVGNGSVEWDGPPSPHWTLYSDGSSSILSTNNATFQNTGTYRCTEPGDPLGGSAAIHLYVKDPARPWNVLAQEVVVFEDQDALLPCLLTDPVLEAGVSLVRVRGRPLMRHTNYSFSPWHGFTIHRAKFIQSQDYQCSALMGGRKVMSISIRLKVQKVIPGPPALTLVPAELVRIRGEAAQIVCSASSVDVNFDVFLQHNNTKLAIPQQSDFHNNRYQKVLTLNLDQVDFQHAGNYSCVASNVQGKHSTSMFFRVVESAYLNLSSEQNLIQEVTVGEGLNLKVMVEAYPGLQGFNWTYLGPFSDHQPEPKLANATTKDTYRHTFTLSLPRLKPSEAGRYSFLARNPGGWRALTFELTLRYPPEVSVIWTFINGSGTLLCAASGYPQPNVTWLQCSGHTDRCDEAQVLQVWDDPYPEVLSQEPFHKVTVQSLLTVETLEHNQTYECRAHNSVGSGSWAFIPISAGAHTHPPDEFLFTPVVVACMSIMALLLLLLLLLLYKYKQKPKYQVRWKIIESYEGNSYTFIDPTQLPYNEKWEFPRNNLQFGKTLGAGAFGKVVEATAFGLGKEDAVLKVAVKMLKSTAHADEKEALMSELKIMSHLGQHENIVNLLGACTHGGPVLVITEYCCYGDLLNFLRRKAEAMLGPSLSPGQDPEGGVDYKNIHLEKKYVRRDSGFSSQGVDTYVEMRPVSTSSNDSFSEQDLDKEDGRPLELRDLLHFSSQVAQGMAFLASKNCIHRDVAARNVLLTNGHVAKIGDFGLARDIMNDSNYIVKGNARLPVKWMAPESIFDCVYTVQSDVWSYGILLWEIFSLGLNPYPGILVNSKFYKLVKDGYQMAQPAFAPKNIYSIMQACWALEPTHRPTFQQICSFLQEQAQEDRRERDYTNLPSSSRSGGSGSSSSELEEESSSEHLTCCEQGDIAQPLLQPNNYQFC
SMILES,IC50 [1],IC50 [2],IC50 [3],clearance [4],clearance [5],inhibition in vivo at 40 mg/kg [6]
NC(=O)c1cnc2cc(-c3ccc(C(=O)N4CCOCC4)cc3)ccc2c1Nc1ccccc1,0.08 µM,8 µM,0.2 µM,,,
Cc1ccc(Nc2c(C(N)=O)cnc3cc(-c4ccc(S(C)(=O)=O)cc4)ccc23)cc1C,0.008 µM,10 µM,0.1 µM,3.06 L/h/kg,,
CC(=O)Nc1ccc(-c2ccc3c(Nc4ccccc4)c(C(N)=O)cnc3c2)cc1,0.08 µM,4 µM,1.3 µM,,,
CCOc1ccc(Nc2c(C(N)=O)cnc3cc(-c4ccncc4)ccc23)cc1F,,> 16 µM,4 µM,,,
CS(=O)(=O)c1ccc(-c2ccc3c(Nc4ccc(F)c(F)c4)c(C(N)=O)cnc3c2)cc1,0.2 µM,> 20 µM,2 µM,,,
Cc1ccc(Nc2c(C(N)=O)cnc3cc(-c4ccncc4)ccc23)cc1C,0.08 µM,> 50 µM,0.1 µM,,,
Cc1ccc(Nc2c(C(N)=O)cnc3cc(-c4ccncc4)ccc23)cc1F,0.08 µM,> 20 µM,5 µM,,,
Cc1ccc(Nc2c(C(N)=O)cnc3cc(-c4ccncc4)ccc23)cc1Cl,0.04 µM,> 32 µM,0.16 µM,,,
Cc1cc(Nc2c(C(N)=O)cnc3cc(-c4ccncc4)ccc23)ccc1Cl,0.16 µM,32 µM,2 µM,,,
NC(=O)c1cnc2cc(-c3ccc(C(=O)N4CCCCC4)cc3)ccc2c1Nc1ccccc1,0.016 µM,8 µM,0.4 µM,,,
Cc1ccc(Nc2c(C(N)=O)cnc3cc(-c4ccc(S(C)(=O)=O)cc4)ccc23)cc1F,0.063 µM,> 20 µM,3.2 µM,,,
NC(=O)c1cnc2cc(-c3ccncc3)ccc2c1Nc1ccon1,3.2 µM,40 µM,> 50 µM,,,
N#Cc1ccc(-c2ccc3c(Nc4ccccc4)c(C(N)=O)cnc3c2)cc1,0.05 µM,32 µM,4 µM,,,
CC(C)Oc1ccc(Nc2c(C(N)=O)cnc3cc(-c4ccncc4)ccc23)cc1,0.63 µM,> 50 µM,40 µM,,,
NC(=O)c1cnc2cc(-c3ccc(C(=O)C4CC4)cc3)ccc2c1Nc1ccccc1,0.1 µM,10 µM,4 µM,,,
NC(=O)c1cnc2cc(-c3ccc(C(=O)C4CCCC4)cc3)ccc2c1Nc1ccccc1,0.032 µM,> 20 µM,> 20 µM,,,
NC(=O)c1cnc2cc(-c3ccc(S(N)(=O)=O)cc3)ccc2c1Nc1ccccc1,0.08 µM,13 µM,3.2 µM,,,
CS(=O)(=O)c1ccc(-c2ccc3c(Nc4ccccc4)c(C(N)=O)cnc3c2)cc1,0.016 µM,20 µM,0.1 µM,,,
NC(=O)c1cnc2cc(-c3ccncc3)ccc2c1Nc1ccccc1,,12 µM,0.8 µM,,2.34 L/h/kg,95%
NC(=O)c1cnc2cc(-c3ccc(C(F)(F)F)cc3)ccc2c1Nc1ccccc1,0.13 µM,20 µM,16 µM,,,
NC(=O)c1cnc2cc(-c3ccc(F)cc3)ccc2c1Nc1ccccc1,0.032 µM,25 µM,25 µM,,,
CCS(=O)(=O)c1ccc(-c2ccc3c(Nc4ccccc4)c(C(N)=O)cnc3c2)cc1,0.2 µM,8 µM,0.8 µM,,,
COc1ccc(Nc2c(C(N)=O)cnc3cc(-c4ccncc4)ccc23)cc1F,0.04 µM,32 µM,0.32 µM,,,
COc1ccc(Nc2c(C(N)=O)cnc3cc(-c4ccncc4)ccc23)cc1Cl,0.032 µM,> 50 µM,0.2 µM,,,

SMILES,IC50 [1],IC50 [2],IC50 [3],clearance [4],clearance [5],inhibition in vivo at 40 mg/kg [6]
NC(=O)c1cnc2cc(-c3ccncc3)ccc2c1Nc1ccc(F)c(F)c1,0.032 µM,> 32 µM,2.5 µM,,,
CS(=O)(=O)c1ccc(-c2ccc3c(Nc4ccc(F)cc4)c(C(N)=O)cnc3c2)cc1,0.16 µM,10 µM,0.4 µM,0.27 L/h/kg,,
CSc1ccc(Nc2c(C(N)=O)cnc3cc(-c4ccncc4)ccc23)cc1,0.13 µM,> 50 µM,10 µM,,,
CS(=O)(=O)Nc1ccc(-c2ccc3c(Nc4ccccc4)c(C(N)=O)cnc3c2)cc1,0.063 µM,10 µM,2 µM,,,
CS(=O)(=O)Cc1cccc(-c2ccc3c(Nc4ccccc4)c(C(N)=O)cnc3c2)c1,0.025 µM,> 20 µM,5 µM,,,
NC(=O)c1cnc2cc(-c3ccncc3)ccc2c1Nc1ccc(F)cc1,0.1 µM,> 40 µM,0.8 µM,,,
CS(=O)(=O)Cc1ccc(-c2ccc3c(Nc4ccccc4)c(C(N)=O)cnc3c2)cc1,0.05 µM,8 µM,1.6 µM,,,
COc1ccc(Nc2c(C(N)=O)cnc3cc(-c4ccc(S(C)(=O)=O)cc4)ccc23)cc1F,0.1 µM,20 µM,1 µM,,,
COc1ccc(Nc2c(C(N)=O)cnc3cc(-c4ccc(S(C)(=O)=O)cc4)ccc23)cc1Cl,,13 µM,0.1 µM,,,
COc1ccc(Nc2c(C(N)=O)cnc3cc(-c4ccncc4)ccc23)cc1,0.063 µM,16 µM,0.8 µM,,,
Cc1cc(Nc2c(C(N)=O)cnc3cc(-c4ccncc4)ccc23)ccc1F,0.05 µM,> 50 µM,1 µM,,,
NC(=O)c1cnc2cc(-c3ccc(N)cc3)ccc2c1Nc1ccccc1,,10 µM,1.6 µM,,,
CN(C)c1ccc(-c2ccc3c(Nc4ccccc4)c(C(N)=O)cnc3c2)cc1,0.04 µM,32 µM,6.3 µM,,,
COc1ccc(-c2ccc3c(Nc4ccccc4)c(C(N)=O)cnc3c2)cc1,0.025 µM,8 µM,6.3 µM,,,
NC(=O)c1cnc2cc(-c3ccncc3)ccc2c1Nc1cccc2[nH]ncc12,0.16 µM,> 32 µM,1.3 µM,,,
CN(C)c1ccc(Nc2c(C(N)=O)cnc3cc(-c4ccncc4)ccc23)cc1,0.063 µM,10 µM,6.3 µM,,,
CC(C)Oc1ccc(Nc2c(C(N)=O)cnc3cc(-c4ccncc4)ccc23)cc1F,,13 µM,8 µM,,,
NC(=O)c1cnc2cc(-c3ccncc3)ccc2c1Nc1n[nH]c2ccccc12,0.32 µM,> 50 µM,0.8 µM,,,
N#Cc1cccc(-c2ccc3c(Nc4ccccc4)c(C(N)=O)cnc3c2)c1,0.32 µM,10 µM,8 µM,,,
Cc1ccc(-c2ccc3c(Nc4ccccc4)c(C(N)=O)cnc3c2)cc1,,25 µM,32 µM,,,
NC(=O)c1cnc2cc(-c3ccccc3)ccc2c1Nc1ccccc1,,32 µM,10 µM,,,
NC(=O)c1cnc2cc(-c3ccncc3)ccc2c1Nc1ccc(OC(F)(F)F)c(Cl)c1,0.032 µM,> 32 µM,> 20 µM,,,
NC(=O)c1cnc2cc(-c3ccc(Br)cc3)ccc2c1Nc1ccccc1,0.016 µM,50 µM,50 µM,,,
